# Data published in patent publication US12029715B2, “Precursor compounds for providing retinoids of the vitamin A5 pathway and uses thereof” (UNIVERSITY OF DEBRECEN, priority 2015, dated 2024).
# “Also recorded” adds a separate entry of the source.
# Legend:
# C57BL/6N mice [1] = assay: Chronic social defeat stress model, forced swim test; format: in vivo, mouse; details: stressed mice, 10 mg/kg i.p. every second day of stress protocol; 10 mg/kg
# Protocol: (§1) The forced swim paradigm was carried out between 1 pm and 4 pm in a 3-litre glass beaker half-filled with water at 22-23° C. (the water depth was 17 cm). All mice were tested only once in this task. To this end, each mouse was lowered gently into the water and the time of immobility was scored during a 6-minute testing period. The mouse was judged immobile when it floated in an upright position and made only small movements to keep its head above the water. After 6 min, the mouse was taken out of the water, left to dry under a red light lamp and returned to its home cage. The immobility scores of each animal were used as an index of despair behavior.
# (§2) Social defeat stress procedure was a modified version of the protocol previously described (Berton, McClung et al. 2006). C57BL/6N mice were defeated chronically for 10 consecutive days. Every day they were exposed to the physical contact with an unfamiliar CD1 aggressor in its home cage for maximal interaction time of 5 minutes. After each session of physical stress, C57BL/6N and CD1 mice were separated by a perforated wall and maintained in sensory contact for 24 h. After the last session of stress, mice were transferred into new cages and housed separately throughout the behavioral tests period. C57BL/6N control mice, similarly to the experimental animals, were housed two per cage separated by a metal perforated wall. Every day, they were exposed to the physical contact for 5 minutes.
# (§3) For behavioral analysis, 9CDHROL and 9CDHBC were dissolved in ethanol, and then mixed with sunflower oil, so that the final solution contained 3% ethanol. Vehicle treatments consisted of 3% ethanol solution in sunflower oil. For memory studies treatments with 9CDHRA were administered by intraperitoneal injections at volume/weight ratio 3 ml/kg at 7 am and 7 hours before the beginning of testing. For tests with animal model of chronic social defeat, different treatments were administered by intraperitoneal injections at volume/weight ratio 3 ml/kg at 10 mg/kg for each substance between 5-6 pm every second day of stress protocol immediately after the stress session starting from day 1 of the stress protocol.
# as §1, with “paradigm (Dalvi and Lucki, 1999)” for “paradigm”, “2-litre” for “3-litre”
# as §2, with “(Berton” for “(Berton, McClung”, “C57BL/6N control mice, similarly to the experimental animals, were housed two per cage separated by a metal perforated wall. Every day, they were exposed to the physical contact for 5 minutes.” left out
# C57BL/6N mice [2] = assay: Chronic social defeat stress model, sucrose preference test; format: in vivo, mouse; details: stressed mice, 10 mg/kg i.p. every second day of stress protocol; 10 mg/kg
# From the text: This task, designed to measure hedonic behaviors in mice is based on the palatable nature of sucrose observed in a number of mouse strains. On the first day of the test, sucrose-naive mice were placed in individual cages at 11 am and left there with water and food for habituation period. At 5 pm one water bottle was replaced with two bottles: one containing water and another 0.8% sucrose solution. Three hours later (8 pm) the bottles were weighed to measure liquid consumption and were replaced in cages until morning. The measures of an overnight consumption were then carried out for additional day to evaluate sucrose preference. Mice were not water deprived at any moment, in order to measure spontaneous sucrose preference and exclude any potential emotional confounds induced by stress of water deprivation. The sucrose preference was expressed as the percent of sucrose solution consumed with respect to total liquid consumption.
# as §2
# as §3, with “by intraperitoneal injections at volume/weight ratio 3 ml/kg at 10 mg/kg for each substance between 5-6 pm every second” left out
# This task, designed to measure hedonic behavior in mice (Moreau, 1997), is based on the palatable nature of sucrose observed in a number of mouse strains. On the first day of the test, sucrose-naive mice were placed in individual cages at 11 am and left there with water and food for habituation period. At 5 pm one water bottle was replaced with two bottles: one containing water and another 0.8% sucrose solution. Three hours later (8 pm) the bottles were weighed to measure liquid consumption and were replaced in cages until morning. The measures of an overnight consumption were then carried out for additional day to evaluate sucrose preference. Mice were not water deprived at any moment, in order to measure spontaneous sucrose preference and exclude any potential emotional confounds induced by stress of water deprivation. The sucrose preference was expressed as the percent of sucrose solution consumed with respect to total liquid consumption.
# Social defeat stress procedure was a modified version of the protocol previously described (Berton et al. 2006). C57BL/6N mice were defeated chronically for 10 consecutive days. […]
# [3] = Mouse oral supplementation, retinoid levels in serum, brain and liver (LC-MS); format: in vivo; details: mice
# Protocol: For metabolic analyses ATROL, 9CDHROL, 9CDHBC and control solutions were prepared as described above. Single per os application of the dose of 40 mg/kg of each substance was used to treat mice in the evening and samples were collected 11 h later in the light protected conditions, weighted, frozen in liquid nitrogen and stored at −80° C. until analyses. Serum was prepared and immediately stored in brown vials at −80° C., till further analysis.
# Accordingly, for sample preparation 100 mg of the material (if samples were under 100 mg, water was added up to the used standard weight: 100 mg) or 100 μl serum was diluted with a threefold volume of isopropanol, the tissues were minced by scissors, vortexed for 10 seconds, put in a ultrasonic bath for 5 minutes, shaken for 6 minutes and centrifuged at 13000 rpm in a Heraeus BIOFUGE Fresco at +4° C. […] The dried extracts were resuspended with 30 μl of methanol—MTBE (50-50) and transferred into the autosampler and 10 μl subsequently analysed.
# Mouse brain samples were prepared according to the procedure described above. Briefly, after single per os application of the dose of 40 mg/kg of 9CDHROL (or other cited substances) in the evening mice were sacrificed after 11 hours and tissues samples including brain were dissected under light-protection conditions, weighted, frozen in liquid nitrogen and stored at −80° C. until analyses. Serum was prepared and immediately stored in brown vials at −80° C., till further analysis.
# For mouse supplementation experiments we treated n=6 mice per os with 40 mg/kg bw 9CDHROL and 11 h after the treatment the mice were killed and blood, brain and liver was taken. After centrifugation of the drawn blood, serum was obtained.
# [4] = tested on: oligodendrocytes cell line 158N; assay: Metabolic conversion in mouse oligodendrocytes cell culture (LC-MS); format: in vitro ADME
# Protocol: Normal immortalized oligodendrocytes cell line 158N was cultured as previously reported (Feutz et al., 2001). Expediently, cells were cultured in supplemented with 5% calf serum (Invitrogen, France). When cells attained 70% of confluency they were treated with 10^−2 M ethanol solution of one of the following compounds: 9CDHROL, 9CDHROL-acetate, 9CDHRA-ethyl ester. 9CDHRA and ethanol as controls, vehicle treatment. 18 h after treatment cells were collected in amber Eppendorf tubes and stored at −80° C. until analyses. Treatments and cell collection were carried out in light limited conditions to avoid photolysis of retinoids.
# (§4) In a slight variant of the method, after reaching confluency of 80% cells were treated with 9CDHROL, 9CDH-retinyl ester (acetate, 9CDHROL-ES), 9CDHRA, 9CDH-retinoyl ester, (ethyl ester, 9CDHRA-ES), ATROL, 9CDHBC, 9CBC and ATBC at a concentration of 10^−6 M or ethanol at corresponding concentration was used as control vehicle treatment. Cells were harvested 18 hours later, centrifuged, weighted, frozen in liquid nitrogen and stored at −80° C. until analyses.
# (§5) High performance liquid chromatography mass spectrometry (LC-MS) was carried out as described in Example 4.
# [5] = tested on: human oligodendrocytes cell cultures; assay: Metabolic conversion in human oligodendrocytes cell culture (HPLC-MS); format: in vitro ADME
# Protocol: as §4, §5
# 9CDHRA levels including standard deviation in human oligodendrocytes cultures were assessed using HPLC-MS analysis after control treatment using ethanol (CTRL), as well as ATROL treatment (ATROL), 9CBC treatments (9CBC), ATBC treatments (ATBC), 9CDHBC treatment (9CDHBC), 9CDHROL treatments (9CDHROL), 9CDHROL-ester treatments (9CDHROL-ES), 9CDHRA treatments (9CDHRA) or 9CDHRA-ester treatments (9CDHRA-ES), each with 10^−6M concentration and n=3 (FIG. 14D).
# [6] = after column chromatography
# [7] = per os 40 mg/kg, 11 h after treatment
compound,measurement,setting,value
"CC1=C(/C=C/C(C)=C\C=C\[C@H](C)C/C=C/C=C(C)/C=C/C=C(C)/C=C/C2=C(C)CCCC2(C)C)C(C)(C)CCC1 (stereo in doubt) [9CDHBC, (R)-9-cis-13,14-Dihydro-β,β-carotene]",immobility time in the forced swim test,C57BL/6N mice [1],decreased such immobility; also recorded: efficiently normalised immobility time
same,sucrose preference (anhedonia),C57BL/6N mice [2],prevented; also recorded: Anhedonia was abolished
same,ATROL levels in mouse organs after treatment,[3]; oral gavage 40 mg/kg,no metabolic conversion
same,"9CDHRA levels in serum, brain and liver after treatment (conversion to 9CDHRA)",[3]; [7],moderate but significant increase
same,"9CDHROL levels in serum, brain and liver after treatment",[3]; [7],did not increase
same,ATROL levels in cells after treatment,[4]; 10^−6M,a low conversion or induced increase
same,9CDHROL levels in cells after treatment,"[4]; 10^−6 M, 18 hours",increases; also recorded: moderately
same,9CBC in cells after treatment,"[4]; 411 nm detection, retention time 26.1 min",no 9CBC could be detected
same,9CDHBC peak in cells after treatment,"[4]; UV detection at 366 nm, retention time 25.1 min",even higher peak was conclusively detected
same,conversion to 9CDHRA,[4]; data not shown,not converted to 9CDHRA
same,9CDHRA levels in cells after treatment (metabolism / accumulation),"[5]; 10^−6M, n=3",not converted to 9CDHRA
same,precursor substrate of 9CDHROL,[5]; in vitro,excellent precursor substrates
same,stability of the isolated product,[6],very unstable and easily degraded
